Test results from patent US20200123127A1, “REMOVAL OF SENESCENCE-ASSOCIATED MACROPHAGES” (EVERON BIOSCIENCES, INC., priority 2016, published 2020).

How the values were obtained:
[1] = system: p16(Ink4a) in mLF and mVAT fibroblasts; test: Modulation of p16(Ink4a) in mouse lung and visceral adipose tissue-derived fibroblasts; type: cell-based; details: for Modulation of p16(Ink4a): mLF and mVAT Senescent: 20Gy irradiation for senescence induction; for Modulation of p16(Ink4a): mLF and mVAT Proliferating: without irradiation
Excerpt: We next sought to determine whether immunomodulatory agents, and other small molecules, were capable of selectively modulating p16(Ink4a) expression in SAMs by comparing their effects on p16 expression in SAMs to that of mouse lung fibroblasts (mLF) and mouse visceral adipose tissue-derived fibroblasts (mVAT). […] Immunomodulatory agents cause little to no change in p16 expression in fibroblasts. For example, mouse fibroblasts are reported to respond to LPS and IL-4 (expressing TLR4 and IL-4R, respectively), yet these agents are unable to modulate p16 in fibroblasts.

[2] = system: adipose-derived mesenchymal stromal cells (AdMSC) from p16Ink4a/Luc mice; test: Luciferase and β-galactosidase activities in senescent and proliferating adipose-derived mesenchymal stromal cells; type: cell-based, mouse
Excerpt: FIG. 10. Elevated p16(Ink4a) and β-galactosidase is regulated by immunomodulatory agents in macrophages, but not in mesenchymal SCs. Primary cultures of adipose-derived mesenchymal stromal cells (AdMSC) isolated from p16^Ink4a/Luc mice were irradiated (20 Gy) and cultured for 10 days for senescence induction. Mock irradiated cells were used as a proliferating cell control. Response of senescent and proliferating AdMSCs to immunomodulatory agents were compared to that of peritoneal lavage cells elicited by our alginate bead model. A-D) Dose-response curves of LPS (top panels: […]) and Poly(I:C) (bottom panels: C&D) on p16(Ink4a) promoter-dependent luciferase activity (left panels: A&C) and beta-galactosidase activity measured via 4-MUG hydrolysis (right panels: B&D) after 72 hr treatment. No effect on viability was observed via CyQuant Direct assay (>80% viability). Results are shown as the mean±standard deviation for at least 3 experiments.
Primary cultures of adipose-derived mesenchymal stromal cells (mAdMSC) were established from the stromal vascular fraction of inguinal adipose tissues of young p16^LUC mice, as described. Isolated adherent cultures were maintained in DMEM/F12 medium supplemented with 15% FBS and 1× anti-biotic/anti-mycotic solution (Thermo Fisher Scientific) in a tri-gas tissue culture incubator at 37° C., 5% CO2 and 3% O2. Medium was change twice per week, and cell passaging performed when cells reached ˜80-90% confluency. For induction of senescence, passage 1 cells were irradiated in suspension at 20 Gy, and replated cultures were maintained at 21% 02.
We investigated whether the mechanisms regulating the expression of these traits in macrophages were similar to those found in SCs. Using cells isolated from p16^Ink4a/Luc mice, the dose-dependent response of luciferase and β-galactosidase activities to immunomodulatory stimuli in macrophages was compared to that of proliferating and irradiation-induced senescent adipose-derived mesenchymal stromal cells. […] LPS stimulation of alginate bead model-elicited macrophages reduced luciferase activity, with maximal inhibition (˜85%) observed at concentrations ≥1 ng/mL (FIG. 10A). In addition, β-galactosidase activity was reduced by 40% at 10 ng/mL (FIG. 10B).
In contrast, luciferase and β-galactosidase activities were unaltered in senescent and proliferating mesenchyme in response to LPS (up to 1 μg/mL) (FIGS. 10A&B).

[3] = system: B16 melanoma lung metastasis in C57BL/6 mice; test: Senescence-enhanced B16 lung metastasis model; type: in vivo, mouse
Excerpt: FIG. 4. Efficacy of A1.1 analogs in the senescence-enhanced B16 metastasis model. (A) Quantification of metastatic nodules by H&E morphometric analysis, and the resulting reduction in tumor burden (%) compared to vehicle control. (B) Quantitation morphometric analysis of lungs excised from irradiated mice treated with analogs of A1.1 post-inoculation of B16 cell intravenously, along with quantitation of morphometric analysis, are provided. (C) In vitro testing of A1.1 and analogs against the growth and viability of B16 cells, as assessed by the resazurin viability assay after 72 hour exposure to compounds compared to non-treated controls.
The role of senescent cells in the promotion of metastatic potential of cancer cells has also been described [Patent WO 2013090645 A1; Campisi, J. (2015). Cancer and Aging: Rival Demons]. […] To test the efficacy of A1.1, irradiated (11 Gy followed by bone-marrow transplantation) and non-irradiated C57BL/6 mice received B16 melanoma cells via tail vein injection were subsequently (72 hours later) administered A1.1 (20 mg/kg) intraperitoneally once a day for 5 consecutive days.
Synthesized analogs were also tested in vivo, to assess whether optimized structures are capable of showing activity against senescence-mediated B16 lung metastasis in irradiated mice (FIG. 4B). Analogs A1.1, A1.12, A1.13, A1.14, A1.15, and A1.6 were administered at 20 mg/kg intraperitoneally for 5 consecutive days. In addition to A1.1, treatment with analogs A1.12, A1.14 and A1.15 at 20 mg/kg reduced the metastatic burden in the lungs of irradiated mice by more than 2-fold.

[4] = system: chronologically aging mice; test: Survival and frailty index of chronologically aging mice; type: in vivo, mouse; details: for survival rates vs control groups: OT-82: after 6 courses, 111 weeks of age, asenins: treated weeks 77-97, at 112 weeks of age
Method: FIG. 11. OT-82 effects on survival and frailty index of old mice. (A) Male and female mice were treated with OT-82 or with vehicle alone as a negative control. Survival was measured over the course of six treatments.
FIG. 12. Effects of asenins TA-3899 and TA-4812 on survival and frailty index of old mice. Results are provided on a background of FI of mice of the similar age, aged normally without any treatments (black color). Difference between FI of males receiving 3899 and intact mice is statistically significant (p=0.02).
Frailty Index (FI) was determined for individual mice as described previously (Antoch et al. Aging. 2017; 9: 1-12) using a 26 week-old group as a “young mouse” reference. For each mouse, various parameters were measured. These parameters include non-invasive measurements, including age, body weight, grip strength, diastolic blood pressure, and tail blood flow. Additional blood chemistry measurements were also determined, including white blood cell count, neutrophil count, neutrophil percentage, lymphocyte percentage, monocyte percentage, eosinophil percentage, red blood cell count, hemoglobin, hematocrit, mean corpuscular volume, mean corpuscular hemoglobin, mean corpuscular hemoglobin concentration, platelet count, and mean platelet volume. For each parameter mean value and standard deviation were calculated. Animals differing by more than one standard deviation (STDEV) from mean value in any single parameter were excluded from the reference group. Values for each measured parameter were compared with corresponding values for the reference group and assigned a score. The number of deficits an individual mouse expressed was calculated as a ratio of total number of parameters measured and this value is referred to as the frailty index.
Asenins TA-3899 and TA-4812 were evaluated for their effects on survival and frailty index in a model of chronologic aging mice. Treatment lasted for 20 weeks (weeks 77-97 of age). […] Frailty index of males was measured at week 109.

| Molecule | Modulation of p16(Ink4a): mLF and mVAT Senescent [1] | Modulation of p16(Ink4a): mLF and mVAT Proliferating [1] | p16(Ink4a) response of senescent vs proliferating mesenchymal cells [2] | further results |
| --- | --- | --- | --- | --- |
| IL-4: M2-polarizing cytokine | no change | no change | lacking a differential response | – |
| COc1ccc(C2CC(=NO)c3c(SCc4ccccc4)sc(C(=O)NCc4cccc(F)c4)c3C2)cc1 (stereo not drawn) [Example A1.6, 3-(Benzylthio)-N-(3-fluorobenzyl)-4-(hydroxyimino)-6-(4-methoxyphenyl)-4,5,6,7-tetrahydrobenzo[c]thiophene-1-carboxamide] | no change | no change | – | reduction of B16 metastatic load in the lungs of irradiated mice vs vehicle ([3]; 20 mg/kg intraperitoneally once a day for 5 consecutive days, irradiated (11 Gy) C57BL/6 mice): did not show a substantial decrease; survival rates vs control groups [4]: no statistical significance |
| IFN-α | – | – | lacking a differential response | – |
| O=C(NCCCc1cn[nH]c1)c1ccc(-c2ccncc2)c(C#Cc2ccc(F)cc2)c1 [OT-82] | no change | no change | – | survival rates vs control groups [4]: no effects on survival rates; frailty index (FI) of males ([4]; OT-82, chronically aged mice): positive effects; survival of treated males ([4]; after 6 courses of treatment, 111 weeks of age (55% in vehicle control group)): 45%; survival of treated females ([4]; after 6 courses of treatment, 111 weeks of age (60% in vehicle group)): 65% |
| Poly(I:C) | no change | no change | – | – |
| CCOC(=O)c1sc(SCc2ccccc2)c2c1CC(c1ccc(OC)cc1)C/C2=N\O (stereo not drawn) [Example A1.1] | – | – | – | tumor burden in non-irradiated animals ([3]; 20 mg/kg intraperitoneally, 5 consecutive days, non-irradiated mice): did not affect |
| IL-13: M2-polarizing cytokine | no change | no change | lacking a differential response | – |
| IFN-γ: type II interferon, M1-inducing agent (protein, UniProt P01579 24-161, looked up) Interferon gamma: QDPYVKEAENLKKYFNAGHSDVADNGTLFLGILKNWKEESDRKIMQSQIVSFYFKLFKNFKDDQSIQKSVETIKEDMNVKFFNSNKKKRDDFEKLTNYSVTDLNVQRKAIHELIQVMAELSPAAKTGKRKRSQMLFRG | – | – | lacking a differential response | – |
